Measured values from patent US6355799B1, “Substituted benzene compounds, process for their preparation, and herbicidal and defoliant compositions containing them” (ISK Americas Incorporated, priority 1997, dated 2002).

Tests used:
Format in all cases: in vivo
[1] = system: redroot pigweed (Amaranthus retroflexus, AMARE); experiment: Pre-emerge test, greenhouse herbicide activity screening; conditions: pre-emerge, 14 days after application, scale 0-100
How it was run: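 Visual ratings on a 0-100 scale (0 no damage, 100 all plants dead) were taken at 14 days after treatment. Rates of 15-1000 g ai/ha in acetone, 187 l/ha, were sprayed onto soil one day after planting (pre-emerge) or onto 2-3 leaf plants with 0.25% v/v surfactant (post-emerge).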

[2] = system: upland rice (Oryza sp., var. Tebonnet, RICE); experiment: Post-emerge test, crop safety; conditions: post-emerge, 14 days after application, rating scale 0-100
How it was run: (§1)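 Each test used a mechanized track sprayer delivering 187 l/ha of acetone solution at 15–1000 g ai/ha. Post-emerge foliage at 2–3 leaves was treated with added 0.25% v/v non-ionic surfactant and bottom-watered only. Injury was assessed on day 14, where 100 means total kill.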

[3] = system: field corn (Zea mays L., var. Dekalb 535, CORN); experiment: Post-emerge test, crop safety; conditions: post-emerge, 14 days after application, rating scale 0-100
How it was run: as §1

[4] = system: upland rice (Oryza sp., var. Tebonnet, RICE); experiment: Pre-emerge test, crop safety; conditions: pre-emerge, 14 days after application, scale 0-100
How it was run: (§2)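 Fourteen days after spraying, crop and weed injury was graded visually from 0, no effect, to 100, every plant dead. Test substances were dissolved in acetone and applied at 15–1000 g ai/ha with a flat-fan nozzle. Application was either pre-emergence, one day after sowing, or post-emergence at the 2–3 leaf stage.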

[5] = system: field corn (Zea mays L., var. Dekalb 535, CORN); experiment: Pre-emerge test, crop safety; conditions: pre-emerge, 63 g ai/ha, 14 days after application, scale 0-100
How it was run: as §2

[6] = system: large crabgrass (Digitaria sanguinalis, DIGSA); experiment: Pre-emerge test, greenhouse herbicide activity screening; conditions: pre-emerge, 14 days after application, scale 0-100
How it was run: (§3)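 Plants grown in 10 cm pots of sandy loam mix received acetone-dissolved compounds through a moving flat-fan nozzle. Doses ranged from 15 to 1000 g ai/ha. Pre-emerge pots were seeded one day earlier, post-emerge pots 8–21 days earlier. Fourteen days on, each pot was graded 0–100 for damage.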

[7] = system: lambsquarters (Chenopodium album, CHEAL); experiment: as above; conditions: pre-emerge, 14 days after application, scale 0-100
How it was run: as §3

[8] = system: velvetleaf (Abutilon theophrasti, ABUTH); experiment: as above; conditions: pre-emerge, 14 days after application, scale 0-100
How it was run: as §3

[9] = system: sicklepod (Cassia obtusifolia, CASOB); experiment: as above; conditions: pre-emerge, 14 days after application, scale 0-100
How it was run: as §3

[10] = system: green foxtail (Setaria viridis, SETVI); experiment: as above; conditions: pre-emerge, 14 days after application, scale 0-100
How it was run: as §3

[11] = system: barnyardgrass (Echinochloa crus-galli, ECHCG); experiment: as above; conditions: pre-emerge, 14 days after application, scale 0-100
How it was run: as §3

[12] = system: johnsongrass (Sorghum halepense, SORHA); experiment: as above; conditions: pre-emerge, 14 days after application, scale 0-100
How it was run: as §3

[13] = system: ivyleaf morningglory (Ipomoea hederacea, IPOHE); experiment: as above; conditions: pre-emerge, 14 days after application, scale 0-100
How it was run: as §3

[14] = system: large crabgrass (Digitaria sanguinalis, DIGSA); experiment: Post-emerge test, greenhouse herbicide activity screening; conditions: post-emerge, 14 days after application, rating scale 0-100
How it was run: (§4)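 Compounds in acetone were track-sprayed at 15–1000 g ai/ha: pre-emergence onto soil sown the previous day, then top-watered to incorporate and later bottom-watered; post-emergence onto 2–3 leaf plants with 0.25% v/v surfactant, bottom-watered only. Ratings on a 0–100 phytotoxicity scale were taken at day 14.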

[15] = system: redroot pigweed (Amaranthus retroflexus, AMARE); experiment: as above; conditions: post-emerge, 14 days after application, rating scale 0-100
How it was run: as §4

[16] = system: lambsquarters (Chenopodium album, CHEAL); experiment: as above; conditions: post-emerge, 14 days after application, rating scale 0-100
How it was run: as §4

[17] = system: velvetleaf (Abutilon theophrasti, ABUTH); experiment: as above; conditions: post-emerge, 14 days after application, rating scale 0-100
How it was run: as §4

[18] = system: sicklepod (Cassia obtusifolia, CASOB); experiment: as above; conditions: post-emerge, 14 days after application, rating scale 0-100
How it was run: as §4

[19] = system: green foxtail (Setaria viridis, SETVI); experiment: as above; conditions: post-emerge, 14 days after application, rating scale 0-100
How it was run: as §4

[20] = system: barnyardgrass (Echinochloa crus-galli, ECHCG); experiment: as above; conditions: post-emerge, 14 days after application, rating scale 0-100
How it was run: as §4

[21] = system: johnsongrass (Sorghum halepense, SORHA); experiment: as above; conditions: post-emerge, 14 days after application, rating scale 0-100
How it was run: as §4

[22] = system: ivyleaf morningglory (Ipomoea hederacea, IPOHE); experiment: as above; conditions: post-emerge, 14 days after application, rating scale 0-100
How it was run: as §4

In the case of `COc1c(Cl)cc(F)c(-n2c(=O)cc(C(F)(F)F)n(C)c2=O)c1NC(=O)CSC` [2-168], the “phytotoxicity rating AMARE” value ([1]; 63 g ai/ha) is reported as 90, the “phytotoxicity rating AMARE” value ([1]; 250 g ai/ha) is reported as 100 and the “RICE phytotoxicity rating (crop damage)” value ([2]; 63 g ai/ha) is reported as 10. For the same compound, the “RICE phytotoxicity rating (crop damage)” value ([2]; 250 g ai/ha) was 30, the “CORN phytotoxicity rating (crop damage)” value ([3]; 63 g ai/ha) was 5 and the “CORN phytotoxicity rating (crop damage)” value ([3]; 250 g ai/ha) was 10. For the same compound, the “phytotoxicity rating RICE (crop damage)” value ([4]; 63 g ai/ha) was 20, the “phytotoxicity rating RICE (crop damage)” value ([4]; 250 g ai/ha) was 60 and the “phytotoxicity rating CORN (crop damage)” value [5] was 0. For the same compound, the “phytotoxicity rating DIGSA” value ([6]; 63 g ai/ha) was 0, the “phytotoxicity rating DIGSA” value ([6]; 250 g ai/ha) was 80 and the “phytotoxicity rating CHEAL” value ([7]; 63 g ai/ha) was 100. The “phytotoxicity rating CHEAL” value ([7]; 250 g ai/ha) was 100, the “phytotoxicity rating ABUTH” value ([8]; 63 g ai/ha) was 60 and the “phytotoxicity rating ABUTH” value ([8]; 250 g ai/ha) was 100. The “phytotoxicity rating CASOB” value ([9]; 63 g ai/ha) was 30, the “phytotoxicity rating CASOB” value ([9]; 250 g ai/ha) was 80 and the “phytotoxicity rating SETVI” value ([10]; 63 g ai/ha) was 10. The “phytotoxicity rating SETVI” value ([10]; 250 g ai/ha) was 95, the “phytotoxicity rating ECHCG” value ([11]; 63 g ai/ha) was 0 and the “phytotoxicity rating ECHCG” value ([11]; 250 g ai/ha) was 20. For the same compound, the “phytotoxicity rating SORHA” value ([12]; 63 g ai/ha) was 0, the “phytotoxicity rating SORHA” value ([12]; 250 g ai/ha) was 90 and the “phytotoxicity rating IPOHE” value ([13]; 63 g ai/ha) was 40. The “phytotoxicity rating IPOHE” value ([13]; 250 g ai/ha) was 90, the DIGSA phytotoxicity rating ([14]; 63 g ai/ha) was 0 and the DIGSA phytotoxicity rating ([14]; 250 g ai/ha) was 0. The AMARE phytotoxicity rating ([15]; 63 g ai/ha) was 20, the AMARE phytotoxicity rating ([15]; 250 g ai/ha) was 50 and the CHEAL phytotoxicity rating ([16]; 63 g ai/ha) was 30. It also gave a CHEAL phytotoxicity rating ([16]; 250 g ai/ha) of 50, an ABUTH phytotoxicity rating ([17]; 63 g ai/ha) of 60 and an ABUTH phytotoxicity rating ([17]; 250 g ai/ha) of 100. It also gave a CASOB phytotoxicity rating ([18]; 63 g ai/ha) of 0, a CASOB phytotoxicity rating ([18]; 250 g ai/ha) of 80 and an SETVI phytotoxicity rating ([19]; 63 g ai/ha) of 0. It also gave an SETVI phytotoxicity rating ([19]; 250 g ai/ha) of 10, an ECHCG phytotoxicity rating ([20]; 63 g ai/ha) of 0 and an ECHCG phytotoxicity rating ([20]; 250 g ai/ha) of 0. The SORHA phytotoxicity rating ([21]; 63 g ai/ha) was 0, the SORHA phytotoxicity rating ([21]; 250 g ai/ha) was 0 and the IPOHE phytotoxicity rating ([22]; 63 g ai/ha) was 60. The IPOHE phytotoxicity rating ([22]; 250 g ai/ha) was 100.
